Source: patent publication US9107411B2, “Indolecarboxamides and benzimidazolecarboxamides as insecticides and acaricides” (BAYER INTELLECTUAL PROPERTY GMBH, priority 2011, dated 2015)

Legend:
Format in all cases: in vivo
[1] = test system: adult engorged Boophilus microplus females of the SP-resistant Parkhurst strain; test: Boophilus microplus test (DIP); details: application rate 100 ppm, after 7 days
Protocol: Boophilus microplus Test (DIP)
Test animals: adult engorged Boophilus microplus females of the SP-resistant Parkhurst strain
Solvent: dimethyl sulphoxide
10 mg of active ingredient are dissolved in 0.5 ml of dimethyl sulphoxide. For the purpose of preparing a suitable formulation, the active ingredient solution is diluted with water to the concentration desired in each case.
This active ingredient formulation is pipetted into tubes. 8-10 ticks are transferred into a further tube with holes. The tube is immersed into the active ingredient formulation, and all ticks are completely wetted. After the liquid has run out, the ticks are transferred onto filter discs in plastic dishes and stored in a climate-controlled room.
The activity is assessed after 7 days by laying of fertile eggs. Eggs whose fertility is not outwardly visible are stored in glass tubes in a climate-controlled cabinet until the larvae hatch. An efficacy of 100% means that none of the ticks has laid any fertile eggs.

Aulacophora femoralis = Aulacophora femoralis spray test (AUACFE); details: application rate 20 ppm; cucumber plants, L2 larvae; after 6 days
Protocol: Aulacophora femoralis Spray Test (AUACFE) Solvent: 3 parts by weight of dimethylformamide Emulsifier: 1 part by weight of polyoxyethylene alkylphenyl ether To produce an appropriate active ingredient formulation, 1 part by weight of active ingredient is mixed with the stated amounts of solvent and emulsifier, and the concentrate is diluted with emulsifier-containing water to the desired concentration. If required, ammonium salts or ammonium salts and penetrants are additionally added in a concentration of 1000 ppm. Young cucumber plants (Cucumis sativus) at the cotyledonous leaf stage are sprayed with an active ingredient formulation of the desired concentration. After drying, the treated plant material is introduced into test vessels and each is infected with 5 L2 larvae of the cucurbit leaf beetle (Aulacophora femoralis). After 6 days, the efficacy in % is determined. 100% means that all of the beetle larvae have been killed; 0% means that none of the beetle larvae have been killed.

Myzus persicae [2] = test: Myzus persicae spray test (MYZUPE - OP/Carb-resistant); details: application rate 100 ppm; aubergine plants; after 6 days
Protocol: Myzus persicae Spray Test (MYZUPE—OP/Carb-Resistant)
Solvent: 3 parts by weight of dimethylformamide
Emulsifier: 1 part by weight of polyoxyethylene alkylphenyl ether
To produce an appropriate active ingredient formulation, 1 part by weight of active ingredient is mixed with the stated amounts of solvent and emulsifier, and the concentrate is diluted with emulsifier-containing water to the desired concentration. If required, ammonium salts or ammonium salts and penetrants are additionally added in a concentration of 1000 ppm.
Aubergine plants (Solanum melongena) at the 2-leaf stage, which have been infested with a mixed population of the green peach aphid (Myzus persicae), are sprayed with an active ingredient formulation of the desired concentration.
After 6 days, the efficacy in % is determined. 100% means that all of the aphids have been killed; 0% means that none of the aphids have been killed.

Myzus persicae [3] = test: Myzus test (MYZUPE spray treatment); details: application rate 100 g/ha; Chinese cabbage leaf discs; after 6 days
Outline: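 Chinese cabbage leaf discs carrying all aphid stages sprayed with active ingredient in acetone/DMF with alkylaryl polyglycol ether emulsifier, diluted in emulsifier-containing water to the desired concentration. Efficacy (% aphids killed) scored after 6 days; 100% = all killed, 0% = none killed.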

Phaedon cochleariae = test: Phaedon test (PHAECO spray treatment); details: application rate 100 g/ha, Chinese cabbage leaf discs, after 7 days
Outline: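 Chinese cabbage leaf discs were sprayed with compound in acetone/DMF with emulsifier, diluted in water to the test concentration. After drying, discs were infested with mustard beetle larvae. Efficacy in % was scored after 7 days, where 100% means all larvae were killed and 0% means none.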

Tetranychus urticae = test: Tetranychus test, OP-resistant (TETRUR spray treatment); details: application rate 100 g/ha; bean leaf discs; after 6 days
Outline: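 Bean leaf discs infested with all stages of OP-resistant T. urticae sprayed with compound formulated in acetone/DMF plus alkylaryl polyglycol ether emulsifier, diluted in water. Efficacy (% mites killed) scored after 6 days.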

| Structure (SMILES) | efficacy (laying of fertile eggs) [1] [%] | efficacy in % (Aulacophora femoralis) [%] | efficacy in % (Myzus persicae [2]) [%] | efficacy in % (Myzus persicae [3]) [%] | pest or weed control at 100 g/ha (Phaedon cochleariae; Phaedon cochleariae, foliar, 168 h, read-out: efficacy in %) [%] | efficacy in % (Tetranychus urticae) [%] | efficacy in % (Phaedon cochleariae) [%] |
| --- | --- | --- | --- | --- | --- | --- | --- |
| CCn1c(C(=O)NC(c2cccc(C(F)(F)F)c2)C(F)(F)F)cc2cc(C(=O)NC3(C#N)CC3)c(Cl)cc21 (stereo not shown) [Compound 7, 6-chloro-N^5-(1-cyanocyclopropyl)-1-ethyl-N^2-{2,2,2-trifluoro-1-[3-(trifluoromethyl)phenyl]ethyl}-1H-indole-2,5-dicarboxamide] | 100 | 100 | 98 | 90 | 100 | 100 |  |
| C#CCn1c(C(=O)NC(c2ccc(F)c(C(F)(F)F)c2)C(F)(F)F)cc2cc(C(=O)NC3CC3)c(Cl)cc21 (stereo not shown) [Compound 6] |  | 100 | 90 |  |  | 80 | 100 |
